Experimental data as given in the supplement of paper PMC11368000.

Key:
Conditions in all cases: exposure time: 90 min
1083 = donor line of iPSC-derived cardiomyocytes; experiment: POD (EC05) for decrease in beat frequency (negative chronotrope) vs vehicle; higher = less potent (higher point of departure)
How it was run: (§1)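 Points of departure specific to each donor were obtained from hierarchical Bayesian Hill fits to vehicle-normalised beat frequency, decay-to-rise ratio or peak frequency. Thresholds were set at 5% change, or 95% loss in the case of peak frequency. The cells were human iPSC-derived cardiomyocytes from 16 donors, exposed for 90 min at 37 °C to 0.1, 1, 10 and 100 µM (final, 0.5% DMSO), with Ca2+ flux read on a FLIPR Tetra before and after exposure.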

1434 = donor line of iPSC-derived cardiomyocytes; experiment: as above
How it was run: as §1

30145 = donor line of iPSC-derived cardiomyocytes; experiment: as above
How it was run: as §1

1518 = donor line of iPSC-derived cardiomyocytes; experiment: as above
How it was run: as §1

11235 [1] = donor line of iPSC-derived cardiomyocytes; experiment: as above
How it was run: as §1

1368 [2] = donor line of iPSC-derived cardiomyocytes; experiment: as above
How it was run: as §1

1392 = donor line of iPSC-derived cardiomyocytes; experiment: as above
How it was run: as §1

20084 [3] = donor line of iPSC-derived cardiomyocytes; experiment: as above
How it was run: as §1

1531 = donor line of iPSC-derived cardiomyocytes; experiment: as above
How it was run: as §1

1535 [4] = donor line of iPSC-derived cardiomyocytes; experiment: as above
How it was run: as §1

1309 = donor line of iPSC-derived cardiomyocytes; experiment: as above
How it was run: as §1

1516 = donor line of iPSC-derived cardiomyocytes; experiment: as above
How it was run: as §1

1118 = donor line of iPSC-derived cardiomyocytes; experiment: as above
How it was run: as §1

20032 = donor line of iPSC-derived cardiomyocytes; experiment: as above
How it was run: as §1

30171 = donor line of iPSC-derived cardiomyocytes; experiment: as above
How it was run: as §1

1565 = donor line of iPSC-derived cardiomyocytes; experiment: as above
How it was run: as §1

11235 [5] = experiment: POD (EC10) for decrease in total cell number (cytotoxicity) vs vehicle; higher = less potent (higher point of departure)
How it was run: (§2)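 Human iPSC-derived cardiomyocytes from 16 donors were cultured 14 days in 384-well plates, then exposed for 90 min at 37 °C to 0.1, 1, 10 and 100 µM (final, 0.5% DMSO). After the Ca2+ flux read, cells were stained 15 min with Hoechst 33342 (2.2 µg/mL) and MitoTracker Orange and imaged at 10× on an ImageXpress Micro Confocal. Nuclei were counted per field in MetaXpress. Donor-specific cytotoxicity points of departure came from hierarchical Bayesian Hill fits to vehicle-normalised counts, using a 10% decrease.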

1368 [6] = experiment: as above
How it was run: as §2

20084 [7] = experiment: as above
How it was run: as §2

1535 [8] = experiment: as above
How it was run: as §2

Compound	POD vs vehicle 1083	POD vs vehicle 1434	POD vs vehicle 30145	POD vs vehicle 1518	POD vs vehicle 11235 [1]	POD vs vehicle 1368 [2]	POD vs vehicle 1392	POD vs vehicle 20084 [3]	POD vs vehicle 1531	POD vs vehicle 1535 [4]	POD vs vehicle 1309	POD vs vehicle 1516	POD vs vehicle 1118	POD vs vehicle 20032	POD vs vehicle 30171	POD vs vehicle 1565	POD vs vehicle 11235 [5]	POD vs vehicle 1368 [6]	POD vs vehicle 20084 [7]	POD vs vehicle 1535 [8]
NC(=O)C(F)(F)C(F)(F)C(F)(F)C(F)(F)C(F)(F)C(F)(F)C(F)(F)F [Perfluorooctanamide]	> 100 µM	> 100 µM	> 100 µM	> 100 µM	> 100 µM	> 100 µM	> 100 µM	> 100 µM	> 100 µM	> 100 µM	> 100 µM	> 100 µM	> 100 µM	> 100 µM	> 100 µM	> 100 µM	> 100 µM	> 100 µM	> 100 µM	> 100 µM
N=C(N)C(F)(F)C(F)(F)C(F)(F)C(F)(F)C(F)(F)C(F)(F)C(F)(F)F [Perfluorooctanamidine]	> 100 µM	> 100 µM	> 100 µM	> 100 µM	0.499 µM	> 100 µM	> 100 µM	> 100 µM	> 100 µM	2.86 µM	> 100 µM	> 100 µM	0.128 µM	> 100 µM	> 100 µM	> 100 µM	> 100 µM	> 100 µM	> 100 µM	> 100 µM
O=S(=O)(O)C(F)(F)C(F)(F)C(F)(F)C(F)(F)C(F)(F)C(F)(F)C(F)(F)C(F)(F)F [Perfluorooctanesulfonic_acid]	> 100 µM	13.3 µM	> 100 µM	> 100 µM	0.581 µM	> 100 µM	> 100 µM	80.7 µM	59.1 µM	> 100 µM	> 100 µM	20.4 µM	10.6 µM	> 100 µM	6.94 µM	> 100 µM	> 100 µM	> 100 µM	> 100 µM	> 100 µM
O=C(O)C(F)(F)C(F)(F)C(F)(F)C(F)(F)C(F)(F)C(F)(F)C(F)(F)F [Perfluorooctanoic_acid]	> 100 µM	26.1 µM	> 100 µM	92.7 µM	5.14 µM	> 100 µM	> 100 µM	> 100 µM	49 µM	41.8 µM	11.1 µM	9 µM	7.02 µM	51.5 µM	7.04 µM	> 100 µM	> 100 µM	> 100 µM	> 100 µM	> 100 µM
O=C(O)C(F)(F)C(F)(F)C(F)(F)C(F)(F)F [Perfluoropentanoic_acid]	> 100 µM	> 100 µM	> 100 µM	> 100 µM	> 100 µM	> 100 µM	> 100 µM	> 100 µM	> 100 µM	> 100 µM	> 100 µM	> 100 µM	> 100 µM	> 100 µM	> 100 µM	> 100 µM	> 100 µM	> 100 µM	> 100 µM	> 100 µM
O=C(O)C(F)(F)C(F)(F)F [Perfluoropropanoic_acid]	> 100 µM	> 100 µM	> 100 µM	> 100 µM	> 100 µM	> 100 µM	> 100 µM	> 100 µM	> 100 µM	> 100 µM	> 100 µM	> 100 µM	> 100 µM	> 100 µM	> 100 µM	> 100 µM	> 100 µM	> 100 µM	> 100 µM	> 100 µM
O=S(=O)([O-])C(F)(F)C(F)(F)C(F)(F)C(F)(F)F.[K+] [Potassium_perfluorobutanesulfonate]	> 100 µM	> 100 µM	> 100 µM	> 100 µM	67.8 µM	> 100 µM	> 100 µM	> 100 µM	> 100 µM	> 100 µM	> 100 µM	> 100 µM	33.8 µM	> 100 µM	> 100 µM	> 100 µM	> 100 µM	> 100 µM	> 100 µM	> 100 µM
